In one data set the target is human MCH-1 receptor (Homo sapiens (Human), UniProt Q99705). The data set can be described thus: Binding Assay for Human Melanin-Concentrating Hormone (MCH-1) Receptor (radioligand displacement, CHO-K1 membranes). Particulars: for Ki: membranes from CHO-K1 cells expressing human MCH1 receptor, [3H]-labeled radioligand, Ki from IC50 by Cheng Prusoff. The procedure: Evaluation of the affinity of compounds for the human MCH-1 receptor was accomplished using 4-(3,4,5-tritritiumbenzyloxy)-1-(1-(2-(pyrrolidin-1-yl)ethyl)-1H-indazol-5-yl)pyridin-2(1H)-one and membranes prepared from stable CHO-K1 cells expressing the human MCH1 receptor obtained from Euroscreen (Batch 1138). Cell membrane homogenates (8.92 μg protein) were incubated for 60 min at 25° C. with […] of the [^3H]-labeled compound in the absence or presence of the test compound in 50 mM Tris-HCl buffer, pH 7.4. Nonspecific binding was determined in the presence of 50 μM 1-(5-(4-cyanophenyl)bicyclo[3.1.0]hexan-2-yl)-3-(4-fluoro-3-(trifluoromethyl)phenyl)-1-(3-(4-methylpiperazin-1-yl)propyl)urea. Following incubation, the samples were filtered rapidly under vacuum through Skatron 11731 filters, pre-soaked in 0.5% polyethylenimine, and washed with ice-cold 50 mM Tris-HCl buffer, pH 7.4, (wash setting 9,9,0) using a Skatron cell harvester. The filters were counted for radioactivity in a liquid scintillation counter (Tri-Carb 2100TR, Packard) using a scintillation cocktail (Ultima Gold MV, Perkin Elmer).
The results are expressed as a percent inhibition of the control radioligand specific binding. The IC50 value (concentration causing a half-maximal inhibition of control specific binding) and Hill coefficient (nH) were determined by non-linear regression analysis of the competition curve using Hill equation curve fitting. The inhibition constant (Ki) was calculated from the Cheng Prusoff equation: (Ki=IC50/(1+(L/KD)), where L=concentration of radioligand in the assay, and KD=affinity of the radioligand for the receptor.

Where a name gives a salt, the structure may show the parent alone. Read-outs that look alike come from different tables or passages of the source.

The results in this text go back to US8629158B2, “Azabicycloalkane-indole and azabicycloalkane-pyrrolo-pyridine MCH-1 antagonists, methods of making, and use thereof” (Albany Molecular Research, Inc., priority 2009, dated 2014).

Chain of human MCH-1 receptor (Q99705 whole entry): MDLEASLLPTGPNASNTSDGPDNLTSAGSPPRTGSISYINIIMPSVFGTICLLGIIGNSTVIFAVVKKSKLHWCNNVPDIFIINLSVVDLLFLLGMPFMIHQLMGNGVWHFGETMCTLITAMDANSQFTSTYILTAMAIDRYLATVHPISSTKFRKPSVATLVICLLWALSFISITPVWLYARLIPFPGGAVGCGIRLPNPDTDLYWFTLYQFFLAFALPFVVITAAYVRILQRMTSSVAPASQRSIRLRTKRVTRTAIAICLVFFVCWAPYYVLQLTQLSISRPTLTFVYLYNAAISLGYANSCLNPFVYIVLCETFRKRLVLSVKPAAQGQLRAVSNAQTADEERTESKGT

In turn, `Cn1c2c(c3ccc(-n4ccc(OCc5ccc(F)cn5)cc4=O)cc31)C1CCC(C2)N1` (stereo not drawn) (as salt: hydrochloride) [Example 6, 4-((5-Fluoropyridin-2-yl)methoxy)-1-(5-methyl-5,6,7,8,9,10-hexahydro-7,10-iminocyclohept[b]indol-3-yl)pyridin-2(1H)-one dihydrochloride] displayed a melting point of 180 to 190 °C.
The same measure, in the same setting: the figure for `O=c1cc(OCc2ccc(F)cn2)ccn1-c1ccc2c3c([nH]c2c1)CC1CCC3N1` (stereo not drawn) (as salt: hydrochloride) [Example 9, 4-((5-Fluoropyridin-2-yl)methoxy)-1-(5,6,7,8,9,10-hexahydro-7,10-iminocyclohept[b]indol-3-yl)pyridin-2(1H)-one dihydrochloride] is 205 to 211 °C (dec.).
`Cl.Cn1c2c(c3ccc(-n4ccc(OCc5ccccn5)cc4=O)cc31)C1CCC(C2)N1` (stereo not drawn) [Example 23, 1-(5-Methyl-6,7,8,9,10-hexahydro-7,10-iminocyclohept[b]indol-3-yl)-4-((pyridin-2-yl)methoxy)pyridin-2(1H)-one hydrochloride] had a melting point of 175 to 195 °C. At human MCH-1 receptor (read-out: MCH-1 Ki), the Ki came out at 17 nM.
The like results for `Cl.O=c1cc(OCc2ccccn2)ccn1-c1ccc2c3c([nH]c2c1)CC1CCC3N1` (stereo not drawn) [Example 22, 1-(5,6,7,8,9,10-Hexahydro-7,10-iminocyclohept[b]indol-3-yl)-4-((pyridin-2-yl)methoxy)pyridin-2(1H)-one hydrochloride] were, in that order, 220 to 230 °C and 25 nM.
The compound `Cc1ccc(COc2cnn(-c3ccc4c5c(n(C)c4c3)CC3CCCC5N3)c(=O)c2)cn1.Cl` (stereo not drawn) [Example 18, 2-(5-Methyl-6,7,8,9,10,11-hexahydro-7,11-imino-5H-cyclooct[b]indol-3-yl)-5-((6-methylpyridin-3-yl)methoxy)pyridazin-3(2H)-one hydrochloride] registered a melting point of 190 to 200 °C. In addition, the Ki on human MCH-1 receptor (read-out: MCH-1 Ki) was determined as 73 nM.
For `Cl.Cn1c2c(c3ccc(-n4ccc(-c5ccc(C(F)(F)F)nn5)cc4=O)cc31)C1CCC(C2)N1` (stereo not drawn) [Example 3, 1-(5-Methyl-5,6,7,8,9,10-hexahydro-7,10-iminocyclohept[b]indol-3-yl)-4-(6-(trifluoromethyl)pyridazin-3-yl)pyridin-2(1H)-one hydrochloride] the same measures were 235 to 245 °C and 24.4 nM.
The compound `Cl.O=c1cc(OCc2ccccc2)ccn1-c1ccc2c3c([nH]c2c1)CC1CCC3N1` (single isomer, unassigned; enantiomer b) [Example 20, (−)-4-(Benzyloxy)-1-(5,6,7,8,9,10-hexahydro-7,10-iminocyclohept[b]indol-3-yl)pyridin-2(1H)-one hydrochloride (Enantiomer B)] displayed a melting point of 211 to 217 °C. In addition, the Ki at human MCH-1 receptor (MCH-1 Ki (nM)) came out at 9.3 nM.
As for `CC(C)N1C2CCC1c1c(n(C)c3cc(-n4ccc(OCc5ccccc5)cc4=O)ccc13)C2` (stereo not drawn) [Example 28, 4-(Benzyloxy)-1-(11-isopropyl-5-methyl-5,6,7,8,9,10-hexahydro-7,10-iminocyclohept[b]indol-3-yl)pyridin-2(1H)-one hydrochloride], at human MCH-1 receptor (read-out: MCH-1 Ki), the Ki was determined as 12 nM.
With `Cn1c2c(c3ccc(-n4ccc(-c5ccc(C(F)(F)F)cn5)cc4=O)cc31)C1CCC(C2)N1` (single isomer, unassigned; enantiomer b) [Example 16, 1-(5-Methyl-5,6,7,8,9,10-hexahydro-7,10-iminocyclohept[b]indol-3-yl)-4-(5-(trifluoromethyl)pyridin-2-yl)pyridin-2(1H)-one hydrochloride (Enantiomer B)], the inhibitory constant (Ki) at human MCH-1 receptor (read-out: MCH-1 Ki) turned out to be 14 nM.
Turning to `CC(=O)N1C2CCC1c1c([nH]c3cc(-n4ccc(OCc5ccccc5)cc4=O)ccc13)C2` (single isomer, unassigned; enantiomer a) (as salt: hydrochloride) [Example 30, 1-(11-Acetyl-5,6,7,8,9,10-hexahydro-7,10-iminocyclohept[b]indol-3-yl)-4-(benzyloxy)pyridin-2(1H)-one hydrochloride (Enantiomer A)], the melting point lay in the range of 140 to 170 °C.
On human MCH-1 receptor (MCH-1 Ki (nM)), `Cn1c2c(c3ccc(-n4ccc(-c5ccc(C(F)(F)F)nc5)cc4=O)cc31)C1CCC(C2)N1` (single isomer, unassigned; enantiomer b) [Example 36, 1-(5-Methyl-5,6,7,8,9,10-hexahydro-7,10-iminocyclohept[b]indol-3-yl)-4-(6-(trifluoromethyl)pyridin-3-yl)pyridin-2(1H)-one hydrochloride (Enantiomer B)] had an inhibitory constant (Ki) of 5.3 nM.
For the compound `Cn1c2c(c3ccc(-n4ccc(OCc5ccc(Cl)cc5Cl)cc4=O)nc31)C1CCC(C2)N1` (stereo not drawn) [Example 48, 4-(2,4-Dichlorobenzyloxy)-1-(10-methyl-5,6,7,8,9,10-hexahydro-5,8-iminocyclohepta[4,5]pyrrolo[2,3-b]pyridin-2-yl)pyridin-2(1H)-one hydrochloride], the inhibitory constant (Ki) on human MCH-1 receptor (read-out: MCH-1 Ki) worked out at 28 nM.
Still for that read-out and setting: the figure for `CN1C2CCC1c1c(n(C)c3nc(-n4ccc(OCc5ccccc5)cc4=O)ccc13)C2` (stereo not drawn) [Example 42, 4-(Benzyloxy)-1-(10,11-dimethyl-5,6,7,8,9,10-hexahydro-5,8-iminocyclohepta[4,5]pyrrolo[2,3-b]pyridin-2-yl)pyridin-2(1H)-one hydrochloride] is 27 nM.
In the case of `Cn1c2c(c3ccc(-n4ccc(-c5ccc(C(F)(F)F)nc5)cc4=O)cc31)C1CCC(C2)N1` (stereo not drawn) (as salt: hydrochloride) [Example 5, 1-(5-Methyl-5,6,7,8,9,10-hexahydro-7,10-iminocyclohept[b]indol-3-yl)-4-(6-(trifluoromethyl)pyridin-3-yl)pyridin-2(1H)-one dihydrochloride], the melting point fell in the range of 228 to 233 °C.
For the compound `Cn1c2c(c3ccc(-n4ccc(OCc5ccccc5)cc4=O)nc31)C1CCC(C2)N1` (stereo not drawn) [Example 39, 4-(Benzyloxy)-1-(10-methyl-5,6,7,8,9,10-hexahydro-5,8-iminocyclohepta[4,5]pyrrolo[2,3-b]pyridin-2-yl)pyridin-2(1H)-one hydrochloride], on human MCH-1 receptor (read-out: MCH-1 Ki), the Ki worked out at 21 nM.
The same measure, in the same setting: the figure for `Cn1c2c(c3ccc(-n4ccc(OCc5ccc(F)cn5)cc4=O)cc31)C1CCC(C2)N1` (stereo not drawn) [Example 6, 4-((5-Fluoropyridin-2-yl)methoxy)-1-(5-methyl-5,6,7,8,9,10-hexahydro-7,10-iminocyclohept[b]indol-3-yl)pyridin-2(1H)-one dihydrochloride] is 13.5 nM.
As for `Cn1c2c(c3ccc(N4CCN(CCc5ccccc5)CC4=O)cc31)C1CCC(C2)N1` (single isomer, unassigned; enantiomer a) [Example 34, 1-(5-Methyl-5,6,7,8,9,10-hexahydro-7,10-iminocyclohept[b]indol-3-yl)-4-phenethylpiperazin-2-one dihydrochloride (Enantiomer A)], the inhibition at 1 µM on human MCH-1 receptor (@ 1 uM test compound, read-out: MCH-1 percent inhibition of control radioligand specific binding) stood at 68%.
Turning to `Cn1c2c(c3ccc(-n4ccc(OCc5ccccc5)cc4=O)cc31)C1CCC(C2)N1` (single isomer, unassigned; enantiomer a) [Example 14, 4-(Benzyloxy)-1-(5-methyl-5,6,7,8,9,10-hexahydro-7,10-iminocyclohept[b]indol-3-yl)pyridin-2(1H)-one hydrochloride (Enantiomer A)], the affinity at human MCH-1 receptor (MCH-1 Ki (nM)) corresponds to a Ki of 15.8 nM.
As to `CCN1C2CCCC1c1c(n(C)c3cc(-n4ccc(OCc5ccccc5)cc4=O)ccc13)C2` (stereo not drawn) [Example 32, 4-(Benzyloxy)-1-(12-ethyl-5-methyl-6,7,8,9,10,11-hexahydro-7,11-imino-5H-cyclooct[b]indol-3-yl)pyridin-2(1H)-one hydrochloride], the Ki on human MCH-1 receptor (read-out: MCH-1 Ki) stood at 15 nM.
